Measurements taken from patent publication US10080764B2, “Topical minocycline compositions and methods of using the same” (Laboratory Skin Care, Inc., priority 2011, dated 2018).

How the values were obtained:
Type in all cases: physicochemical
[1] = Binding of minocycline HCl to Hydroxysomes and release (pH dependence); conditions: for pH at which minocycline attaches (binds) to Hydroxysomes: binding suspension in water, shaken 30 min, monohydrochloride
Experimental: Hydroxysomes® (calcium phosphate particles, Laboratory Skin Care, San Carlos, Calif.) were suspended in water. […] The final pH of the suspension was adjusted to 6.2 to 8.0 with add. The binding suspension was mixed by shaking for 30 min. The binding suspensions were centrifuged at 10,000 rpm for 10 min in the bench top microcentrifuge. The supernatants were analyzed with the Shimadzu spectrophotometer to quantify the free minocycline. The bound minocycline was calculated by subtracting the amount of the minocycline detected in the supernatant, from the total initial amount in the binding suspension. The total initial minocycline absorbance at the binding pH was calculated from the linearity equation of the standard plot. • Controls: Minocycline solution at the same pH with the same concentration as in the binding mixture. D. Example Formulation

[2] = Minocycline stability in water, 6 days at room temperature, HPLC of supernatant; conditions: capped glass vial
From the text: The vials were then centrifuged and the supernatant analyzed by HPLC.

[3] = Fluorescence of bulk powders under white and UV black light; conditions: 25 mg MNC/g Hydroxysomes

**Q.** With `CN(C)c1ccc(O)c2c1C[C@H]1C[C@H]3[C@H](N(C)C)C(O)=C(C(N)=O)C(=O)[C@@]3(O)C(O)=C1C2=O.Cl` [Minocycline HCl, 4,7-Bis(dimethylamino) 1,4,4a,5,5a,6,11,12a-octahydro-3,10,12,12a-tetrahydroxy-1,11-dioxo-2-naphthacenecarboxamide monohydrochloride] as the compound, how does the “pH at which minocycline associated with Hydroxysomes is unstable (releases)” value [1] read?
**A.** Its value is “acidic pH”.

**Q.** What about the “pH at which minocycline attaches (binds) to Hydroxysomes” value ([1]; listed as Minocycline) of the same compound?
**A.** The value was 6.2-8.0.

**Q.** What about the “pH at which minocycline attaches (binds) to Hydroxysomes” value [1] of the same compound?
**A.** Its value is “neutral or alkaline pH”.

**Q.** And the “degradation by HPLC analysis of supernatant” value [2]?
**A.** The value was “substantial degradation”.

**Q.** And the “visible discoloration of vial” value [2]?
**A.** Its value is “visibly discolored”.

**Q.** And the “fluorescence of bulk powder under black light” value [3]?
**A.** Its value is “Intense yellow-orange fluorescence”.
